According to patent US8318711B2, “Use of diacetyl trimer as an aromatic and flavouring substance” (Symrise AG, priority 2004, dated 2012):

How the values were obtained:
[1] = Stability of diacetyl trimer on heating; format: physicochemical; settings: heated at 60° C. to 100° C. for 10 minutes
[2] = Tasting in sweet/salty solution (flavour profile by testers); format: in vivo; settings: 1 ppm in aqueous 5% sucrose or 0.5% sodium chloride solution, 9 testers; for flavour profile: fatty (oily): scale 1 (action scarcely perceptible) to 9 (action highly perceptible)
Protocol: The 2,5-diacetyl-3a,5,6,6a-tetrahydro-6a-hydroxy-2,3a,5-trimethylfuro[2,3-d]-1,3-dioxole from Example 1 (1 ppm diacetyl trimer in aqueous 5 wt. % sucrose or 0.5% sodium chloride solution) was investigated for its flavouring action by 9 testers. The actions found were evaluated with a scale of from 1 (action scarcely perceptible) to 9 (action highly perceptible).
For comparison, a flavour profile of diacetyl (1 ppm in aq. 5% sucrose or 0.5% sodium chloride solution) was produced under otherwise identical conditions: fatty (oily) (5), cream (5), butter (7), milk (4), condensed milk (4), fruity (2), cheesy (2), sweet (4), vanillin (2), intensity (7), impact (7), fullness (7), adhesive (5), soft (6)

| decomposition on heating [1] | Compound | flavour profile: fatty (oily) [2] | flavour profile: adhesive ([2]; scale 1 to 9) | flavour profile: butter ([2]; scale 1 to 9) | flavour profile: caramel ([2]; scale 1 to 9) | flavour profile: cream ([2]; scale 1 to 9) | flavour profile: fresh cheese/quark ([2]; scale 1 to 9) | flavour profile: fullness ([2]; scale 1 to 9) | flavour profile: impact ([2]; scale 1 to 9) | flavour profile: intensity ([2]; scale 1 to 9) | flavour profile: soft ([2]; scale 1 to 9) | flavour profile: sweet ([2]; scale 1 to 9) | flavour profile: toffee ([2]; scale 1 to 9) | flavour profile: vanillin ([2]; scale 1 to 9) | flavour profile: cheesy ([2]; scale 1 to 9) | flavour profile: condensed milk ([2]; scale 1 to 9) | flavour profile: fruity ([2]; scale 1 to 9) | flavour profile: milk ([2]; scale 1 to 9) |
| --- | --- | --- | --- | --- | --- | --- | --- | --- | --- | --- | --- | --- | --- | --- | --- | --- | --- | --- |
| does not decompose | CC(=O)C1(C)CC2(O)OC(C)(C(C)=O)OC2(C)O1 (racemic) [diacetyl trimer, 2,5-diacetyl-3a,5,6,6a-tetrahydro-6a-hydroxy-2,3a,5-trimethylfuro[2,3-d]-1,3-dioxole] | 7 | 8 | 8 | 4 | 6 | 4 | 7 | 7 | 6 | 6 | 6 | 6 | 3 | – | – | – | – |
| – | CC(=O)C(C)=O [diacetyl, 2,3-butanedione] | 5 | 5 | 7 | – | 5 | – | 7 | 7 | 7 | 6 | 4 | – | 2 | 2 | 4 | 2 | 4 |
